Experiments:
[1] = target: T1, 5ht1a (Homo sapiens, UniProt P08908); experiment: PDSP receptor binding, 5ht1a; details: PDSP primary screen at 10 µM
T1 construct: purchased NIMH PDSP (Psychoactive Drug Screening Program, Roth lab, Case Western Reserve)

[2] = target: T2, 5ht1d (Homo sapiens, UniProt P28221); experiment: PDSP receptor binding, 5ht1d; details: PDSP primary screen at 10 µM
T2 construct: purchased NIMH PDSP (Psychoactive Drug Screening Program, Roth lab, Case Western Reserve)

[3] = target: T3, 5ht1e (Homo sapiens, UniProt P28566); experiment: PDSP receptor binding, 5ht1e; details: PDSP primary screen at 10 µM
T3 construct: purchased NIMH PDSP (Psychoactive Drug Screening Program, Roth lab, Case Western Reserve)

[4] = target: T4, 5ht2b (Homo sapiens, UniProt P41595); experiment: PDSP receptor binding, 5ht2b; details: PDSP primary screen at 10 µM
T4 construct: purchased NIMH PDSP (Psychoactive Drug Screening Program, Roth lab, Case Western Reserve)

[5] = target: T5, 5ht2c (Homo sapiens, UniProt P28335); experiment: PDSP receptor binding, 5ht2c; details: PDSP primary screen at 10 µM
T5 construct: purchased NIMH PDSP (Psychoactive Drug Screening Program, Roth lab, Case Western Reserve)

[6] = target: T6, 5ht3 (Homo sapiens, UniProt P46098); experiment: PDSP receptor binding, 5ht3; details: PDSP primary screen at 10 µM
T6 construct: purchased NIMH PDSP (Psychoactive Drug Screening Program, Roth lab, Case Western Reserve)

[7] = target: T7, 5ht5a (Homo sapiens, UniProt P47898); experiment: PDSP receptor binding, 5ht5a; details: PDSP primary screen at 10 µM
T7 construct: purchased NIMH PDSP (Psychoactive Drug Screening Program, Roth lab, Case Western Reserve)

[8] = target: T8, 5ht6 (Homo sapiens, UniProt P50406); experiment: PDSP receptor binding, 5ht6; details: PDSP primary screen at 10 µM
T8 construct: purchased NIMH PDSP (Psychoactive Drug Screening Program, Roth lab, Case Western Reserve)

[9] = target: T9, 5ht7 (Homo sapiens, UniProt P34969); experiment: PDSP receptor binding, 5ht7; details: PDSP primary screen at 10 µM
T9 construct: purchased NIMH PDSP (Psychoactive Drug Screening Program, Roth lab, Case Western Reserve)

[10] = target: T10, α2A (Homo sapiens, UniProt P08913); experiment: PDSP receptor binding, α2A; details: PDSP primary screen at 10 µM
T10 construct: purchased NIMH PDSP (Psychoactive Drug Screening Program, Roth lab, Case Western Reserve)

[11] = target: T11, α2C (Homo sapiens, UniProt P18825); experiment: PDSP receptor binding, α2C; details: PDSP primary screen at 10 µM
T11 construct: purchased NIMH PDSP (Psychoactive Drug Screening Program, Roth lab, Case Western Reserve)

[12] = target: T12, D2 (Homo sapiens, UniProt P14416); experiment: PDSP receptor binding, D2; details: PDSP primary screen at 10 µM
T12 construct: purchased NIMH PDSP (Psychoactive Drug Screening Program, Roth lab, Case Western Reserve)

[13] = target: T13, D3 (Homo sapiens, UniProt P35462); experiment: PDSP receptor binding, D3; details: PDSP primary screen at 10 µM
T13 construct: purchased NIMH PDSP (Psychoactive Drug Screening Program, Roth lab, Case Western Reserve)

[14] = target: T14, D4 (Homo sapiens, UniProt P21917); experiment: PDSP receptor binding, D4; details: PDSP primary screen at 10 µM
T14 construct: purchased NIMH PDSP (Psychoactive Drug Screening Program, Roth lab, Case Western Reserve)

[15] = target: T15, D5 (Homo sapiens, UniProt P21918); experiment: PDSP receptor binding, D5; details: PDSP primary screen at 10 µM
T15 construct: purchased NIMH PDSP (Psychoactive Drug Screening Program, Roth lab, Case Western Reserve)

[16] = target: T16, H1 (Homo sapiens, UniProt P35367); experiment: PDSP receptor binding, H1; details: PDSP primary screen at 10 µM
T16 construct: purchased NIMH PDSP (Psychoactive Drug Screening Program, Roth lab, Case Western Reserve)

[17] = target: T17, H2 (Homo sapiens, UniProt P25021); experiment: PDSP receptor binding, H2; details: PDSP primary screen at 10 µM
T17 construct: purchased NIMH PDSP (Psychoactive Drug Screening Program, Roth lab, Case Western Reserve)

[18] = target: T18, H3 (Homo sapiens, UniProt Q9Y5N1); experiment: PDSP receptor binding, H3; details: PDSP primary screen at 10 µM
T18 construct: purchased NIMH PDSP (Psychoactive Drug Screening Program, Roth lab, Case Western Reserve)

[19] = target: T19, H4 (Homo sapiens, UniProt Q9H3N8); experiment: PDSP receptor binding, H4; details: PDSP primary screen at 10 µM
T19 construct: purchased NIMH PDSP (Psychoactive Drug Screening Program, Roth lab, Case Western Reserve)

[20] = target: KOR (Homo sapiens, UniProt P41145); experiment: PDSP receptor binding, KOR; details: Case Western Reserve University, read-out: KOR Ki (secondary binding)
[21] = target: T20, M2 (Homo sapiens, UniProt P08172); experiment: PDSP receptor binding, M2; details: PDSP primary screen at 10 µM
T20 construct: purchased NIMH PDSP (Psychoactive Drug Screening Program, Roth lab, Case Western Reserve)

[22] = target: T21, M3 (Homo sapiens, UniProt P20309); experiment: PDSP receptor binding, M3; details: PDSP primary screen at 10 µM
T21 construct: purchased NIMH PDSP (Psychoactive Drug Screening Program, Roth lab, Case Western Reserve)

[23] = target: T22, MOR (Homo sapiens, UniProt P35372); experiment: PDSP receptor binding, MOR; details: PDSP primary screen at 10 µM
T22 construct: purchased NIMH PDSP (Psychoactive Drug Screening Program, Roth lab, Case Western Reserve)

[24] = target: T23, SERT (Homo sapiens, UniProt P31645); experiment: PDSP receptor binding, SERT; details: PDSP primary screen at 10 µM
T23 construct: purchased NIMH PDSP (Psychoactive Drug Screening Program, Roth lab, Case Western Reserve)

[25] = target: α5β3γ2 BzR/GABA(A); details: text b7; read-out: Ki at the α5β3γ2 subtype; cited from earlier work
[26] = test system: α2β3γ2 GABAA receptor; details: cited from earlier work
[27] = target: α1β3γ2 GABAA/BzR (Homo sapiens, UniProt P14867+P18507); experiment: Competition binding to HEK cell membranes, α1β3γ2; design: expressed in transfected cells; details: Ki α1

C#Cc1ccc2c(c1)C(=O)N(C)Cc1c(C(=O)OCCCOC(=O)c3ncn4c3CN(C)C(=O)c3cc(C#C)ccc3-4)ncn1-2 [XLi-093 (4), 1,3-Bis(8-acetyleno-5,6-dihydro-5-methyl-6-oxo-4H-imidazo[1,5a][1,4]benzodiazepine-3-carboxy) propyl diester]
5ht1a binding [1]: ∗ (“∗” indicates “primary missed” (<50% inhibition at 10 µM))
5ht1d binding [2]: ∗ (“∗” indicates “primary missed” (<50% inhibition at 10 µM))
5ht1e binding [3]: ∗ (“∗” indicates “primary missed” (<50% inhibition at 10 µM))
5ht2b binding [4]: ∗ (“∗” indicates “primary missed” (<50% inhibition at 10 µM))
5ht2c binding [5]: ∗ (“∗” indicates “primary missed” (<50% inhibition at 10 µM))
5ht3 binding [6]: ∗ (“∗” indicates “primary missed” (<50% inhibition at 10 µM))
5ht5a binding [7]: ∗ (“∗” indicates “primary missed” (<50% inhibition at 10 µM))
5ht6 binding [8]: ∗ (“∗” indicates “primary missed” (<50% inhibition at 10 µM))
5ht7 binding [9]: ∗ (“∗” indicates “primary missed” (<50% inhibition at 10 µM))
α2A binding [10]: ∗ (“∗” indicates “primary missed” (<50% inhibition at 10 µM))
α2C binding [11]: ∗ (“∗” indicates “primary missed” (<50% inhibition at 10 µM))
D2 binding [12]: ∗ (“∗” indicates “primary missed” (<50% inhibition at 10 µM))
D3 binding [13]: ∗ (“∗” indicates “primary missed” (<50% inhibition at 10 µM))
D4 binding [14]: ∗ (“∗” indicates “primary missed” (<50% inhibition at 10 µM))
D5 binding [15]: ∗ (“∗” indicates “primary missed” (<50% inhibition at 10 µM))
H1 binding [16]: ∗ (“∗” indicates “primary missed” (<50% inhibition at 10 µM))
H2 binding [17]: ∗ (“∗” indicates “primary missed” (<50% inhibition at 10 µM))
H3 binding [18]: ∗ (“∗” indicates “primary missed” (<50% inhibition at 10 µM))
H4 binding [19]: ∗ (“∗” indicates “primary missed” (<50% inhibition at 10 µM))
Ki [20]: 2020 nM
M2 binding [21]: ∗ (“∗” indicates “primary missed” (<50% inhibition at 10 µM))
M3 binding [22]: ∗ (“∗” indicates “primary missed” (<50% inhibition at 10 µM))
MOR binding [23]: ∗ (“∗” indicates “primary missed” (<50% inhibition at 10 µM))
SERT binding [24]: ∗ (“∗” indicates “primary missed” (<50% inhibition at 10 µM))
Ki [25]: 15 nM
modulation of GABA induced chloride flux, α2β3γ2 ([26]; at 1 μM): did not modulate
influence on benzodiazepine (Valium) stimulation of GABA-induced current, α2β3γ2 [26]: barely influenced
Ki [27]: > 1000 nM

From PMC4657098, “A Review of the Updated Pharmacophore for the Alpha 5 GABA(A) Benzodiazepine Receptor Model” (International Journal of Medicinal Chemistry, 2015)
